Substitutions are numbered along the chain they refer to. In names and notes the source's numbering stands.
Key:
IRE1 [1] = biological target: T1, IRE1 (Saccharomyces cerevisiae, UniProt P32361, D797A); test: fluorescent RNase activation assay at […]; format: biochemical
T1 sequence (P32361 658-1115 D797A): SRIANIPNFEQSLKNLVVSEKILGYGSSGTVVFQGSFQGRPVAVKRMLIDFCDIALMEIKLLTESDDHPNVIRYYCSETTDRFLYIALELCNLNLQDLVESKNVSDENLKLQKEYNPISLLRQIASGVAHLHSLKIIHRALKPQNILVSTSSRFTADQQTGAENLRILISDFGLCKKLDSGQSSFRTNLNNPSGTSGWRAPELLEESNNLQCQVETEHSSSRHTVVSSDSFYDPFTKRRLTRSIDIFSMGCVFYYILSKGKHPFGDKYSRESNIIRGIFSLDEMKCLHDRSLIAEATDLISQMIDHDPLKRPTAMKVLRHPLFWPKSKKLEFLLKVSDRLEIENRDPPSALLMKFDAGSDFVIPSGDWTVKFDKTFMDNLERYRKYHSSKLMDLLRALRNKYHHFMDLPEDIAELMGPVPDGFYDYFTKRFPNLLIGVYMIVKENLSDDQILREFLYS

IRE1 [2] = biological target: IRE1 (Saccharomyces cerevisiae, UniProt P32361); test: co-crystal structure with quercetin; format: biochemical
IRE1 [3] = biological target: T2, IRE1 (Saccharomyces cerevisiae, UniProt P32361, K985A); test: RNase activation assay and DSS crosslinking at […] ADP; format: biochemical
T2 sequence (P32361 658-1115 K985A): T1 sequence (P32361 658-1115 D797A) with A140D, K328A

cross-linking = biological target: the molecule itself; test: cross-linking
AUC = biological target: the molecule itself; test: AUC

Chain of IRE1 (Saccharomyces cerevisiae, UniProt P32361) (P32361 658-1115): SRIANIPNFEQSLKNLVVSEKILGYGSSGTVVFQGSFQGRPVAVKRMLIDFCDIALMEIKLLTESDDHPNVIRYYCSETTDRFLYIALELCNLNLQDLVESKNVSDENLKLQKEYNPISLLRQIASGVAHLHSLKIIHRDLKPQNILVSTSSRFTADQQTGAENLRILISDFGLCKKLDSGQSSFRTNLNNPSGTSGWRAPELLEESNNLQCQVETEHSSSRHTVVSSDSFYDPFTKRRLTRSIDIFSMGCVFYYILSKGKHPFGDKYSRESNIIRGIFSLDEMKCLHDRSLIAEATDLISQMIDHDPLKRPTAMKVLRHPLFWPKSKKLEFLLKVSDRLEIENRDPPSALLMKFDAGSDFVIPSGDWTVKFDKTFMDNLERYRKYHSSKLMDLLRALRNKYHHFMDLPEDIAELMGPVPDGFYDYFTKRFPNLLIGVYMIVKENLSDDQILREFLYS

Question: With O=c1c(O)c(-c2ccc(O)c(O)c2)oc2cc(O)cc(O)c12 [quercetin] as the molecule, how does the “fluorescent RNase activation assay at 25 μM” value (IRE1 [1]) read?
Answer: The value was “addition of quercetin substantially activates its RNase (Figure 7C). Such activation was Q-site dependent”.

Question: Which results are given for Nc1ncnc2c1ncn2[C@@H]1O[C@H](COP(=O)(O)OP(=O)(O)O)[C@@H](O)[C@H]1O [ADP]?
Answer: EC50 (IRE1 [2]): ~40 µM; RNase activation assay and DSS crosslinking at 2 mM ADP (IRE1 [3]): abolished by the Q-site mutant IRE1^K985A, although ADP-dependent crosslinking was still observed

B1: IRE1^K985A (Q-site mutant of yeast IRE1 658–1115) (domain or fragment, UniProt P32361 658-1115, looked up)
chain: T1 sequence (P32361 658-1115 D797A) with A140D, K328A
modifications: purified as a phosphorylated protein (sites not given)
Question: Does B1 bind (cross-linking)?
Answer: Result: binds

B2: cytosolic portion of yeast IRE1 (residues 658–1115; inclusive of both the kinase and KEN domains) (domain or fragment, UniProt P32361 658-1115, looked up)
chain: T1 sequence (P32361 658-1115 D797A) with A140D
modifications: phosphorylated when purified from bacteria (sites not given for this construct)
Question: With B2 as the molecule, how does the “stoichiometry N” value (AUC) read?
Answer: Its value is 2.

From article PMC2864793 (Molecular cell, 2010)
